Article PMC5218480 (PLoS ONE, 2017)

System: MV-4-11 cells
Assay: Gene expression microarray analysis (Affymetrix PrimeView) and GSEA
Assay type: cell-based, human
Set-up: RFU PODN (11730768_x_at) / Fold change /veh PODN (11730768_x_at) / RFU LINC00158 (11744669_a_at) / Fold change /veh LINC00158 (11744669_a_at) / RFU DUSP10 (11751237_a_at) / Fold change /veh DUSP10 (11751237_a_at) / RFU ID3 (11757404_x_at) / Fold change /veh ID3 (11757404_x_at) / RFU PLEKHG5 (11737974_s_at) / Fold change /veh PLEKHG5 (11737974_s_at) / RFU LRRC4B (11730491_at) / Fold change /veh LRRC4B (11730491_at) / RFU GIMAP4 (11747438_a_at) / Fold change /veh GIMAP4 (11747438_a_at) / RFU KRT8 (11758183_x_at) / Fold change /veh KRT8 (11758183_x_at) / RFU CNN1 (11734310_a_at) / Fold change /veh CNN1 (11734310_a_at) / RFU VPS37D (11726825_at) / Fold change /veh VPS37D (11726825_at) / RFU C10orf10 (11716522_x_at) / Fold change /veh C10orf10 (11716522_x_at) / RFU KIR2DL2 /// KIR2DL4 /// KIR2DL5A /// KIR2DL5B /// KIR2DS1 /// KIR2DS2 /// KIR2DS3 /// KIR2DS4 /// KIR3DL3 /// KIR3DL3 /// KIR3DS1 (11738374_at) / Fold change /veh KIR2DL2 /// KIR2DL4 /// KIR2DL5A /// KIR2DL5B /// KIR2DS1 /// KIR2DS2 /// KIR2DS3 /// KIR2DS4 /// KIR3DL3 /// KIR3DL3 /// KIR3DS1 (11738374_at) / RFU C1QL1 (11718748_at) / Fold change /veh C1QL1 (11718748_at) / RFU TMPRSS4 (11747572_a_at) / Fold change /veh TMPRSS4 (11747572_a_at) / RFU HAMP (11756126_x_at) / Fold change /veh HAMP (11756126_x_at) / RFU RNFT2 (11725882_a_at) / Fold change /veh RNFT2 (11725882_a_at) / RFU NR4A2 (11747474_a_at) / Fold change /veh NR4A2 (11747474_a_at) / RFU ABCC12 (11746883_a_at) / Fold change /veh ABCC12 (11746883_a_at) / RFU TMEM136 (11760407_x_at) / Fold change /veh TMEM136 (11760407_x_at) / RFU CLDN22 /// WWC2 (11732394_at) / Fold change /veh CLDN22 /// WWC2 (11732394_at) / RFU HLA-DPB1 (11760878_x_at) / Fold change /veh HLA-DPB1 (11760878_x_at) / RFU SPINT1 (11716480_a_at) / Fold change /veh SPINT1 (11716480_a_at) / RFU GAP43 (11754022_s_at) / Fold change /veh GAP43 (11754022_s_at) / RFU A4GNT (11735810_at) / Fold change /veh A4GNT (11735810_at) / RFU PRB3 (11715151_x_at) / Fold change /veh PRB3 (11715151_x_at) / RFU TUBB4B (11761932_at) / Fold change /veh TUBB4B (11761932_at) / RFU CAPN14 (11732068_a_at) / Fold change /veh CAPN14 (11732068_a_at) / RFU TMCC2 (11721928_a_at) / Fold change /veh TMCC2 (11721928_a_at) / RFU IRGQ (11745062_a_at) / Fold change /veh IRGQ (11745062_a_at) / RFU FAM174B (11720279_a_at) / Fold change /veh FAM174B (11720279_a_at) / RFU TMPRSS4 (11748680_a_at) / Fold change /veh TMPRSS4 (11748680_a_at) / RFU FAM212B (11763350_a_at) / Fold change /veh FAM212B (11763350_a_at) / RFU PLEKHG5 (11743358_a_at) / Fold change /veh PLEKHG5 (11743358_a_at) / RFU ZSCAN30 (11745921_a_at) / Fold change /veh ZSCAN30 (11745921_a_at) / RFU CMKLR1 (11741424_a_at) / Fold change /veh CMKLR1 (11741424_a_at) / RFU LOC101060620 /// MAPK8IP1 (11723275_at) / Fold change /veh LOC101060620 /// MAPK8IP1 (11723275_at) / RFU SPTSSB (11747773_x_at) / Fold change /veh SPTSSB (11747773_x_at) / RFU PRSS12 (11739890_at) / Fold change /veh PRSS12 (11739890_at) / RFU BIN1 (11741810_x_at) / Fold change /veh BIN1 (11741810_x_at) / RFU WNT11 (11732464_a_at) / Fold change /veh WNT11 (11732464_a_at) / RFU C10orf10 (11716521_a_at) / Fold change /veh C10orf10 (11716521_a_at) / RFU C5orf56 (11738089_at) / Fold change /veh C5orf56 (11738089_at) / RFU CYB561 (11721691_x_at) / Fold change /veh CYB561 (11721691_x_at) / RFU ANKRD19P (11752326_a_at) / Fold change /veh ANKRD19P (11752326_a_at) / RFU OR2T12 /// OR2T33 /// OR2T8 (11738714_s_at) / Fold change /veh OR2T12 /// OR2T33 /// OR2T8 (11738714_s_at) / RFU VCAN (11748164_a_at) / Fold change /veh VCAN (11748164_a_at) / RFU JSRP1 (11732532_at) / Fold change /veh JSRP1 (11732532_at) / RFU KRTAP10-11 (11738290_x_at) / Fold change /veh KRTAP10-11 (11738290_x_at) / RFU MYO3A (11730013_a_at) / Fold change /veh MYO3A (11730013_a_at) / RFU EBF3 (11725865_a_at) / Fold change /veh EBF3 (11725865_a_at) / RFU CAMK2N1 (11719241_x_at) / Fold change /veh CAMK2N1 (11719241_x_at) / RFU C5orf56 (11738088_a_at) / Fold change /veh C5orf56 (11738088_a_at) / RFU OLFML3 (11715873_a_at) / Fold change /veh OLFML3 (11715873_a_at) / RFU LOC100653217 /// NTM (11731650_a_at) / Fold change /veh LOC100653217 /// NTM (11731650_a_at) / RFU MAPK11 (11762145_a_at) / Fold change /veh MAPK11 (11762145_a_at) / RFU FIZ1 (11724087_x_at) / Fold change /veh FIZ1 (11724087_x_at) / RFU OASL (11726364_x_at) / Fold change /veh OASL (11726364_x_at) / RFU SOX15 (11748057_x_at) / Fold change /veh SOX15 (11748057_x_at) / RFU CD79A (11719716_a_at) / Fold change /veh CD79A (11719716_a_at) / RFU HIST1H1D (11736915_at) / Fold change /veh HIST1H1D (11736915_at) / RFU CASKIN2 (11723855_a_at) / Fold change /veh CASKIN2 (11723855_a_at) / RFU LOC730098 (11760151_x_at) / Fold change /veh LOC730098 (11760151_x_at) / RFU OR4N2 (11742367_at) / Fold change /veh OR4N2 (11742367_at) / RFU PRRT2 (11749266_a_at) / Fold change /veh PRRT2 (11749266_a_at) / RFU SNX32 (11753110_a_at) / Fold change /veh SNX32 (11753110_a_at) / RFU CDHR5 (11726645_a_at) / Fold change /veh CDHR5 (11726645_a_at) / RFU RCAN1 (11760418_a_at) / Fold change /veh RCAN1 (11760418_a_at) / RFU FAM167A (11723789_a_at) / Fold change /veh FAM167A (11723789_a_at) / RFU FAM26E (11764081_at) / Fold change /veh FAM26E (11764081_at) / RFU ISYNA1 (11749810_s_at) / Fold change /veh ISYNA1 (11749810_s_at) / RFU ACY1 (11761880_at) / Fold change /veh ACY1 (11761880_at) / RFU 11764098_at / Fold change /veh 11764098_at / RFU SAMD14 (11745864_x_at) / Fold change /veh SAMD14 (11745864_x_at) / RFU NPB (11741838_a_at) / Fold change /veh NPB (11741838_a_at) / RFU TMPRSS6 (11731388_a_at) / Fold change /veh TMPRSS6 (11731388_a_at) / RFU KRTAP10-2 (11738614_at) / Fold change /veh KRTAP10-2 (11738614_at) / RFU ARHGAP8 /// PRR5-ARHGAP8 (11727945_x_at) / Fold change /veh ARHGAP8 /// PRR5-ARHGAP8 (11727945_x_at) / RFU KRTAP5-7 /// NADSYN1 (11734609_at) / Fold change /veh KRTAP5-7 /// NADSYN1 (11734609_at) / RFU RASL12 (11751679_a_at) / Fold change /veh RASL12 (11751679_a_at) / RFU CDKN2B (11736163_a_at) / Fold change /veh CDKN2B (11736163_a_at) / RFU PRF1 (11729649_at) / Fold change /veh PRF1 (11729649_at) / RFU, ZNF638 /// ZNF638-IT1 / Fold change vs veh, ZNF638 /// ZNF638-IT1 / RFU, PANK3 / Fold change vs veh, PANK3 / RFU, SH3YL1 / Fold change vs veh, SH3YL1 / RFU, ZEB2 / Fold change vs veh, ZEB2 / RFU, NRIP1 / Fold change vs veh, NRIP1 / RFU, PTTG1IP / Fold change vs veh, PTTG1IP / RFU, CAPN2 / Fold change vs veh, CAPN2 / RFU, MED14 / Fold change vs veh, MED14 / RFU, SNORA58 / Fold change vs veh, SNORA58 / RFU, C1orf63 / Fold change vs veh, C1orf63 / RFU, LRRFIP1 / Fold change vs veh, LRRFIP1 / RFU, NDUFAF7 / Fold change vs veh, NDUFAF7 / RFU, SLC12A2 / Fold change vs veh, SLC12A2 / RFU, IBTK / Fold change vs veh, IBTK / RFU, ESF1 / Fold change vs veh, ESF1 / Fold change vs veh, TMEM50B / RFU, TAOK1 / Fold change vs veh, TAOK1 / RFU, ACBD3 / Fold change vs veh, ACBD3 / RFU, TMA16 / Fold change vs veh, TMA16 / RFU, RWDD3 / Fold change vs veh, RWDD3 / RFU, BCAT1 / Fold change vs veh, BCAT1 / RFU, EDEM3 / Fold change vs veh, EDEM3 / RFU, TMEM33 / Fold change vs veh, TMEM33 / RFU, WDR75 / Fold change vs veh, WDR75 / RFU, AHCTF1 / Fold change vs veh, AHCTF1 / RFU, TFRC / Fold change vs veh, TFRC / RFU, ZDHHC17 / Fold change vs veh, ZDHHC17 / RFU, NOM1 / Fold change vs veh, NOM1 / RFU, ARL8B / Fold change vs veh, ARL8B / RFU, ZBTB11 / Fold change vs veh, ZBTB11 / RFU, TAMM41 / Fold change vs veh, TAMM41 / RFU, KIAA1704 /// LOC100996395 / Fold change vs veh, KIAA1704 /// LOC100996395 / RFU, ING1 / Fold change vs veh, ING1 / RFU, TRMT61B / Fold change vs veh, TRMT61B / RFU, FUBP3 / Fold change vs veh, FUBP3 / RFU, TP53 / Fold change vs veh, TP53 / RFU, TNKS2 / Fold change vs veh, TNKS2 / RFU, ZFP14 / Fold change vs veh, ZFP14 / RFU, ACTR2 / Fold change vs veh, ACTR2 / RFU, PPP3R1 / Fold change vs veh, PPP3R1 / RFU, PIK3R1 / Fold change vs veh, PIK3R1 / RFU, HNRNPA1 / Fold change vs veh, HNRNPA1 / RFU, RNF170 / Fold change vs veh, RNF170 / RFU, ZNF28 / Fold change vs veh, ZNF28 / RFU, RNGTT / Fold change vs veh, RNGTT / RFU, OGT / Fold change vs veh, OGT / RFU, BRD1 / Fold change vs veh, BRD1 / RFU, MARS / Fold change vs veh, MARS / RFU, ZNF655 / Fold change vs veh, ZNF655 / RFU, FAHD1 / Fold change vs veh, FAHD1 / RFU, BDP1 / Fold change vs veh, BDP1 / RFU, LRRCC1 / Fold change vs veh, LRRCC1 / RFU, ARID1A / Fold change vs veh, ARID1A / RFU, ZNF146 / Fold change vs veh, ZNF146 / RFU, ZNF330 / Fold change vs veh, ZNF330 / RFU, GPN3 / Fold change vs veh, GPN3 / RFU, C9orf123 / Fold change vs veh, C9orf123 / RFU, N4BP2L2 / Fold change vs veh, N4BP2L2 / RFU, ARFIP1 / Fold change vs veh, ARFIP1 / RFU, FAM179B / Fold change vs veh, FAM179B / RFU, BCL10 / Fold change vs veh, BCL10 / RFU, UHRF1BP1L / Fold change vs veh, UHRF1BP1L / RFU, BET1 / Fold change vs veh, BET1 / RFU, CNOT2 / Fold change vs veh, CNOT2 / RFU, ZNF268 / Fold change vs veh, ZNF268 / Fold change vs veh, ZNF507 / RFU, DGCR2 / Fold change vs veh, DGCR2 / RFU, WDSUB1 / Fold change vs veh, WDSUB1 / Fold change vs veh, HSP90B1 /// MIR3652 / RFU, ADSS / Fold change vs veh, ADSS / RFU, GK / Fold change vs veh, GK / RFU, ZNF148 / Fold change vs veh, ZNF148 / RFU, TAF9 / Fold change vs veh, TAF9 / RFU, SLC1A5 / Fold change vs veh, SLC1A5 / RFU, SLMO2 / Fold change vs veh, SLMO2 / RFU, ABCC4 / Fold change vs veh, ABCC4 / RFU, LOC101060439 /// RAP1B / Fold change vs veh, LOC101060439 /// RAP1B / RFU, RFX7 / Fold change vs veh, RFX7 / RFU, GTPBP10 / Fold change vs veh, GTPBP10 / RFU, CNEP1R1 / Fold change vs veh, CNEP1R1 / RFU, BIVM-ERCC5 /// ERCC5 / Fold change vs veh, BIVM-ERCC5 /// ERCC5 / RFU, ILF3 / Fold change vs veh, ILF3 / RFU 11762660_at / Fold change /veh 11762660_at / RFU VCAN (11757783_s_at) / Fold change /veh VCAN (11757783_s_at) / RFU DDX43 (11728927_at) / Fold change /veh DDX43 (11728927_at) / RFU KRT8 (11758188_x_at) / Fold change /veh KRT8 (11758188_x_at) / RFU NKD1 (11759106_at) / Fold change /veh NKD1 (11759106_at) / RFU SRD5A1 (11742802_a_at) / Fold change /veh SRD5A1 (11742802_a_at) / RFU TPSAB1 /// TPSB2 (11721975_s_at) / Fold change /veh TPSAB1 /// TPSB2 (11721975_s_at) / RFU GSTM3 (11746129_a_at) / Fold change /veh GSTM3 (11746129_a_at) / RFU IL23R (11737362_x_at) / Fold change /veh IL23R (11737362_x_at) / RFU TMEM51 (11727254_a_at) / Fold change /veh TMEM51 (11727254_a_at) / RFU PIWIL2 (11732686_x_at) / Fold change /veh PIWIL2 (11732686_x_at) / RFU ORM1 (11744905_x_at) / Fold change /veh ORM1 (11744905_x_at) / RFU CCDC152 (11743942_at) / Fold change /veh CCDC152 (11743942_at) / RFU ECM1 (11717891_a_at) / Fold change /veh ECM1 (11717891_a_at) / RFU IL23R (11748794_a_at) / Fold change /veh IL23R (11748794_a_at) / RFU TNFAIP8L3 (11732012_x_at) / Fold change /veh TNFAIP8L3 (11732012_x_at) / RFU MBOAT4 (11741988_at) / Fold change /veh MBOAT4 (11741988_at) / RFU 11764193_at / Fold change /veh 11764193_at / RFU TMEM53 (11763286_at) / Fold change /veh TMEM53 (11763286_at) / RFU MAGEB2 (11727129_at) / Fold change /veh MAGEB2 (11727129_at) / RFU TMEM200A (11744735_a_at) / Fold change /veh TMEM200A (11744735_a_at) / RFU CCDC152 (11751479_a_at) / Fold change /veh CCDC152 (11751479_a_at) / RFU FAM211A (11726209_a_at) / Fold change /veh FAM211A (11726209_a_at) / RFU RGS16 (11746705_a_at) / Fold change /veh RGS16 (11746705_a_at) / RFU VCAN (11755009_s_at) / Fold change /veh VCAN (11755009_s_at) / RFU RHOB (11743442_s_at) / Fold change /veh RHOB (11743442_s_at) / RFU RGS16 (11720943_a_at) / Fold change /veh RGS16 (11720943_a_at) / RFU RGS16 (11720944_at) / Fold change /veh RGS16 (11720944_at) / RFU, VPS4B / Fold change vs veh, VPS4B / RFU, CREB1 / Fold change vs veh, CREB1 / RFU, DNAJC13 / Fold change vs veh, DNAJC13 / RFU, GNAQ / Fold change vs veh, GNAQ / RFU, CDK5R1 / Fold change vs veh, CDK5R1 / RFU, ZRANB3 / Fold change vs veh, ZRANB3 / RFU, CUL4A / Fold change vs veh, CUL4A / RFU, CCNY / Fold change vs veh, CCNY / RFU, UFL1 / Fold change vs veh, UFL1 / RFU, COG3 / Fold change vs veh, COG3 / RFU, DIAPH2 / Fold change vs veh, DIAPH2 / RFU, SKA2 / Fold change vs veh, SKA2 / RFU, AFF3 / Fold change vs veh, AFF3 / RFU, LMF1 / Fold change vs veh, LMF1 / RFU, IPO11 / Fold change vs veh, IPO11 / RFU, DFFB / Fold change vs veh, DFFB / RFU, FOXP1 / Fold change vs veh, FOXP1 / RFU, CARD8 / Fold change vs veh, CARD8 / RFU, STRN3 / Fold change vs veh, STRN3 / RFU, ADK / Fold change vs veh, ADK / RFU, RASSF2 / Fold change vs veh, RASSF2 / RFU, WIPF1 / Fold change vs veh, WIPF1 / RFU, LARP1B / Fold change vs veh, LARP1B / RFU, RASA1 / Fold change vs veh, RASA1 / RFU, RB1 / Fold change vs veh, RB1 / RFU, PPFIA1 / Fold change vs veh, PPFIA1 / RFU, MAT2A / Fold change vs veh, MAT2A / RFU, CCT5 / Fold change vs veh, CCT5 / RFU, WDR92 / Fold change vs veh, WDR92 / RFU, CUX1 / Fold change vs veh, CUX1 / RFU, TTC7A / Fold change vs veh, TTC7A / RFU, TMEM135 / Fold change vs veh, TMEM135 / RFU, DEPTOR / Fold change vs veh, DEPTOR / RFU, CPM / Fold change vs veh, CPM / RFU, DNAJB6 / Fold change vs veh, DNAJB6 / RFU, CACNA2D3 / Fold change vs veh, CACNA2D3 / RFU, DTX4 / Fold change vs veh, DTX4 / RFU, TFCP2 / Fold change vs veh, TFCP2 / RFU, GMCL1 /// GMCL1P1 / Fold change vs veh, GMCL1 /// GMCL1P1 / RFU, AEBP2 / Fold change vs veh, AEBP2 / RFU, SNHG1 /// SNORD22 /// SNORD25 /// SNORD26 /// SNORD27 /// SNORD28 /// SNORD29 /// SNORD31 / Fold change vs veh, SNHG1 /// SNORD22 /// SNORD25 /// SNORD26 /// SNORD27 /// SNORD28 /// SNORD29 /// SNORD31 / Fold change (Aza/veh), C12orf56 (ProbeSet 11735607_a_at) / Fold change (ACY-1035/veh), C12orf56 (ProbeSet 11735607_a_at) / Fold change (Aza/veh), FGFR1OP (ProbeSet 11751329_s_at) / Fold change (ACY-1035/veh), FGFR1OP (ProbeSet 11751329_s_at) / Fold change (Aza/veh), VPS36 (ProbeSet 11739960_a_at) / Fold change (ACY-1035/veh), VPS36 (ProbeSet 11739960_a_at) / RFU SYPL1 (11715823_x_at) / Fold change /veh SYPL1 (11715823_x_at) / RFU IGFBP7 (11715501_s_at) / Fold change /veh IGFBP7 (11715501_s_at) / RFU REEP3 (11722064_at) / Fold change /veh REEP3 (11722064_at) / RFU IGLL1 (11728026_x_at) / Fold change /veh IGLL1 (11728026_x_at): dose or concentration left out as unconfirmed
Conditions: ProbeSet 11724877_a_at; LIST D

SMILES: Nc1ncn([C@@H]2O[C@H](CO)[C@@H](O)[C@H]2O)c(=O)n1 [azacitidine]
- RFU, AEBP2: 23.96 RFU
